Experiments:
[1] = test system: p65 (NFκB); assay: oxLDL-induced p65 nuclear translocation in BMDMs (western blot); assay type: cell-based, mouse; settings: 2.5 μM pretreatment 1 h, oxLDL 50 μg/ml 1 h
Protocol: FIG. 3. NO2—OA prevents oxLDL-induced NFκB activation and pro-inflammatory cytokine production. Primary BMDMs were pretreated with vehicle, OA (2.5 μM) or NO2—OA (2.5 μM) for 1 h, followed by treatment of oxLDL (50 to 100 μg/ml) for the indicated times. (A, B) Nuclear (A) and cytoplasmic protein (B) fractions were isolated 1 h after oxLDL treatment and subjected to western blot with antibodies against p65, lamin a/c (nuclear marker) and GAPDH (cytosolic marker). Representative western blot images of three independent experiments are shown. (C) Quantification of the p65 nuclear to cytoplasmic ratio by image studio (normalized by the internal control, n=3). (D-F) Following 8 h of oxLDL treatment, levels of IL6, MCP1 and TNFα in the cell medium were measured by ELISA (n=4). (G) Real-time PCR quantification of gene expression levels of IL1b and Mmp9 in total mRNA extracted from the BMDMs. […]
Nuclear/cytoplasm protein extraction, co-Immunoprecipitation and immunoblotting NE-PER™ Nuclear and Cytoplasmic Extraction Reagents (#78835, ThermoFisher) were used for nuclear and cytoplasmic protein extraction. […] Membranes were blocked by 5% BSA and incubated with the primary antibody at 4° C. overnight followed by incubation with fluorescence conjugated secondary antibody for 1 h at room temperature. Band intensity was collected with the Odyssey® CLx Imaging System and quantified using Image Studio™ Lite.

[2] = molecular target: T1, EPRAP/p105 interaction (Homo sapiens, UniProt P19838+Q9BSK4); assay: Co-IP of HA-tagged EPRAP (FEM1A) and p105; assay type: cell-based; settings: up to 5 μM; cells overexpressing HA-tagged EPRAP (FEM1A) and p105
T1 construct: Addgene (p105 plasmid) #HG21487-NY; plasmid #23288
T1 sequence (Q9BSK4 1-669): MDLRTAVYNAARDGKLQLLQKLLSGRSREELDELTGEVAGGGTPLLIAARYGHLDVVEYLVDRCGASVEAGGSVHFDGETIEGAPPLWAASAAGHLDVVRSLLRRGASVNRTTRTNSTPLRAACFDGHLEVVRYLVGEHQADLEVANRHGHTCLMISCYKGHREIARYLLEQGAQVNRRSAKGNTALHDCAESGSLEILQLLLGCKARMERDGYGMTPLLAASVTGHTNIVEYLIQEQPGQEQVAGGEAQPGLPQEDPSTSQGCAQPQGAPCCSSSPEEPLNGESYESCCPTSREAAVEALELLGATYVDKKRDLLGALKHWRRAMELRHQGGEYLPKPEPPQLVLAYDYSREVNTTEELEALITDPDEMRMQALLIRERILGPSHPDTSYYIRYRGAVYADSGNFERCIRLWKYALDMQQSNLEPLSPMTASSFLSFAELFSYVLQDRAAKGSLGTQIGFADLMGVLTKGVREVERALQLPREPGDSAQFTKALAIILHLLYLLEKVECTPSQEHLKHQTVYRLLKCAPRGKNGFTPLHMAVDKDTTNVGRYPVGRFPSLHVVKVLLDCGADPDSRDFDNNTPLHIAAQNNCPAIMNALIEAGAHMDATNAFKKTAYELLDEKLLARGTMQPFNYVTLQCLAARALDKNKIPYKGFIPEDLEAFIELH
T1 sequence (P19838 1-968): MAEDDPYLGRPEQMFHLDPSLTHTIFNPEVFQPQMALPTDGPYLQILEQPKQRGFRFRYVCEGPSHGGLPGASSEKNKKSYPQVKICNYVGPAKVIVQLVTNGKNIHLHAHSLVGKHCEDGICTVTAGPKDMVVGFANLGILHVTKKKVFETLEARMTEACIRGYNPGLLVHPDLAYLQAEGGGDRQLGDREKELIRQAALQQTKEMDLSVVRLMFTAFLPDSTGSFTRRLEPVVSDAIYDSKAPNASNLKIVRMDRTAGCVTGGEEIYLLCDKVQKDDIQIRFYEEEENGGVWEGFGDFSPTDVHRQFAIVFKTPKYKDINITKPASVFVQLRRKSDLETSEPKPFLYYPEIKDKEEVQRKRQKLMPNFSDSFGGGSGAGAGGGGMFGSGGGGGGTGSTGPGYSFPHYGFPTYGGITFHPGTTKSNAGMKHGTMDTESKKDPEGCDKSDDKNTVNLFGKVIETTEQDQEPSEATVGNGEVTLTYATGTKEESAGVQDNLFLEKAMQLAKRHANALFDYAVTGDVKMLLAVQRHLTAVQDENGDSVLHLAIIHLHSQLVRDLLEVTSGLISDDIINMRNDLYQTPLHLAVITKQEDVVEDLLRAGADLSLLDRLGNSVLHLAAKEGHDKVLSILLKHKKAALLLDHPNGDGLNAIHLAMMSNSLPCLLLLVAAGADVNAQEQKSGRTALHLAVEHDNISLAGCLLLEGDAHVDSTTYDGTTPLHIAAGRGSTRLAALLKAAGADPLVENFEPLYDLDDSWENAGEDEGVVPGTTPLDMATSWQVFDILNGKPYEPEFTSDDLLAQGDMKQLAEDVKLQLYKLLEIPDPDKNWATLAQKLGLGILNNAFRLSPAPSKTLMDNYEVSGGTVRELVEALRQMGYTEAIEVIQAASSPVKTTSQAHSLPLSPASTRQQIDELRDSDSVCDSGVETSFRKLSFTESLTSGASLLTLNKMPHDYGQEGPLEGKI
Excerpt: Nuclear/cytoplasm protein extraction, co-Immunoprecipitation and immunoblotting NE-PER™ Nuclear and Cytoplasmic Extraction Reagents (#78835, ThermoFisher) were used for nuclear and cytoplasmic protein extraction. For Co-IP, cells were lysed using Cell Lysis Buffer (#9803, CST) supplemented with PMSF (#8553, CST), immunoprecipitated using Protein G Magnetic Beads (#7024, CST) and antibodies against HA (#AE008, ABclonal) or p50/p105(#13586, CST) following the manufacture's protocol. For immunoblot, protein extracts were resolved in SDS-PAGE gels and transferred to nitrocellulose membranes. Membranes were blocked by 5% BSA and incubated with the primary antibody at 4° C. overnight followed by incubation with fluorescence conjugated secondary antibody for 1 h at room temperature. Band intensity was collected with the Odyssey® CLx Imaging System and quantified using Image Studio™ Lite.

[3] = test system: oxLDL-treated BMDMs; assay: Cytokine ELISA in medium of oxLDL-treated BMDMs; assay type: cell-based, mouse; settings: 2.5 μM, 8 h oxLDL, vs control
Protocol: FIG. 3. NO2—OA prevents oxLDL-induced NFκB activation and pro-inflammatory cytokine production. Primary BMDMs were pretreated with vehicle, OA (2.5 μM) or NO2—OA (2.5 μM) for 1 h, followed by treatment of oxLDL (50 to 100 μg/ml) for the indicated times. (A, B) Nuclear (A) and cytoplasmic protein (B) fractions were isolated 1 h after oxLDL treatment and subjected to western blot with antibodies against p65, lamin a/c (nuclear marker) and GAPDH (cytosolic marker). Representative western blot images of three independent experiments are shown. (C) Quantification of the p65 nuclear to cytoplasmic ratio by image studio (normalized by the internal control, n=3). (D-F) Following 8 h of oxLDL treatment, levels of IL6, MCP1 and TNFα in the cell medium were measured by ELISA (n=4). (G) Real-time PCR quantification of gene expression levels of IL1b and Mmp9 in total mRNA extracted from the BMDMs. (C) Ordinary one-way ANOVA followed by Tukey's test was performed. As of (D-F), the basal level contains several non-detectable values, so ordinary one-way ANOVA followed by correction of FDR were performed for the oxLDL-treated groups only. Ordinary one-way ANOVA followed by Tukey's test was performed for (G). Data presented as mean±SEM. A p<0.05 for both the main test and post hoc test was considered statistically significant.
Murine RAW 264.7 cell line, 293T/17 cell line and Primary Umbilical Vein Endothelial Cells (PCS-100-010, HUVECs) were purchased from ATCC (Manassas, VA) and cultured in DMEM (Gibco) with 10% FBS (Thermo Fisher Scientific) or M199 (Gibco) supplemented with 20% FBS for HUVECs. BMDMs isolated from 12 to 16-week-old C57BL/6 wild type mice were cultured in bone marrow macrophage differentiation media. The differentiation medium was prepared by adding L-cell conditioned media (30%), non-essential amino acids (#11140-050, Gibco), sodium pyruvate (1 mM, #11360-070, Gibco), 2-Mercaptoethanol (55 μM) and 10% FBS into Iscove's Modified Dulbecco's Medium (IMDM, Gibco).

CCCCCCCCC(=CCCCCCCCC(=O)O)[N+](=O)[O-] [NO2—OA, 10-nitro-octadec-9-enoic acid]
p65 nuclear to cytoplasmic ratio [1]: 14.10±1.92 | effect on the EPRAP/p105 interaction [2]: no significant effect | IL6 level in oxLDL-treated cell medium [3]: significant decrease | MCP1 level in oxLDL-treated cell medium [3]: marginally significant reduction | TNFα levels in oxLDL-treated cell medium [3]: no significant difference
